From patent US20200131227A1, “POLYPEPTIDE WITH TUMOUR BINDING ACTIVITY” (RUPRECHT-KARLS-UNIVERSITÄT HEIDELBERG, priority 2017, published 2020)
Where a SMILES comes first, the peptide text is derived from it. Bridges are numbered along the chain shown (N, C = ends). The star is where a group is joined. DOTA = O=C(O)CN1CCN(CC(=O)O)CCN(CC(=O)*)CCN(CC(=O)O)CC1

Experiments:
ITGαvβ3 = ITGαvβ3 (Homo sapiens, UniProt P05106+P06756); assay: Surface plasmon resonance assay (SPR), ITGαvβ3; format: binding
Chain of ITGαvβ3 (P06756 31-992 limits assumed): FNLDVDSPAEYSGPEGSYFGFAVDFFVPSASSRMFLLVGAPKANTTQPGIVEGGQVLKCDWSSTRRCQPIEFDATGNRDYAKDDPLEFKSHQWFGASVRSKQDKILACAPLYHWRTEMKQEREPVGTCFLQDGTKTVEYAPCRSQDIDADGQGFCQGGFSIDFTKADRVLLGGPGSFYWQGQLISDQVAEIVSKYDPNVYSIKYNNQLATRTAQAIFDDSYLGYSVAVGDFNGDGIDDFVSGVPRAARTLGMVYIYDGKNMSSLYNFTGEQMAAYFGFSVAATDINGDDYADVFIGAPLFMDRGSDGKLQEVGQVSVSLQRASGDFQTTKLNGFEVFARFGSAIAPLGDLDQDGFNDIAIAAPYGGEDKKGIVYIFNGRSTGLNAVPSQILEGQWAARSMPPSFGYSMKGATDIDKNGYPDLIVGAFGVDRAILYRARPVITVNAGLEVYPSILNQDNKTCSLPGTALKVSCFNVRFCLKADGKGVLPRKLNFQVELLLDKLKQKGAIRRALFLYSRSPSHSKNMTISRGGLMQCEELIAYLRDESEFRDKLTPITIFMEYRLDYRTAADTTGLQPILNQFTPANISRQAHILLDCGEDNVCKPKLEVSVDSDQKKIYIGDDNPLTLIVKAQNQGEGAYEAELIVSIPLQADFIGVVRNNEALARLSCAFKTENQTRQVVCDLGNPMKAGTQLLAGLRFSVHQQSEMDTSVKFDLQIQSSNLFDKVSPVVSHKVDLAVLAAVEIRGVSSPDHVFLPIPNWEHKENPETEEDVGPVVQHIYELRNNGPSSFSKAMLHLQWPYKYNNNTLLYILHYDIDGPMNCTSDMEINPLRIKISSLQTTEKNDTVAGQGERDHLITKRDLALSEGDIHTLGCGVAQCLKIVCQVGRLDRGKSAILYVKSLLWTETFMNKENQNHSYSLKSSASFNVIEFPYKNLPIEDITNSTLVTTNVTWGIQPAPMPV
Chain of ITGαvβ3 (P05106 27-718 limits assumed): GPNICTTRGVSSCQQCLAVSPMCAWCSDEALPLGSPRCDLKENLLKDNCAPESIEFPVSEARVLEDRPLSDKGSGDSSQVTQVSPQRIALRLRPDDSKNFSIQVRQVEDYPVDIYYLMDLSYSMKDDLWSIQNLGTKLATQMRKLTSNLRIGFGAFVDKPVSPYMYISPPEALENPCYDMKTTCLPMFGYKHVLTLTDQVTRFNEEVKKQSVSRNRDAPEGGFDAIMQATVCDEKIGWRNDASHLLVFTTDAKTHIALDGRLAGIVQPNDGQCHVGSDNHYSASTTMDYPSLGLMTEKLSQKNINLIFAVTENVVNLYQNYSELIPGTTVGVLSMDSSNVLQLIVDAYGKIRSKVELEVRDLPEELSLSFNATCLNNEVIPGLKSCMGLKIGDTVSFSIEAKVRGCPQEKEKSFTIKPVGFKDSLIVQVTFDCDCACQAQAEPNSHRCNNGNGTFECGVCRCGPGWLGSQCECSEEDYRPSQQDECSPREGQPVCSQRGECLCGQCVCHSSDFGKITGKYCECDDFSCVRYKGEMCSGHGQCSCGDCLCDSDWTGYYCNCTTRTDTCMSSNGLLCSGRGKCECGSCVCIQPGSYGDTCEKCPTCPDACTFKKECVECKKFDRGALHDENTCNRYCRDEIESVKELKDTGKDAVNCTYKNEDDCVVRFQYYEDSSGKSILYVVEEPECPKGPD
Description: (§1) Assessment of the binding affinity was performed on a BiaCore X100 (GE Healthcare). To avoid denaturation of the heterodimer during amide activation ITGαvβ6 and ITGαvβ3, respectively, were used as analytes and SFITGv6 was immobilized at its N-terminus on a C1 sensor Chip (BR-1005-35, GE Healthcare) using a manual amine coupling protocol. Briefly, after activation of the sensor chip surface with a solution of EDC 0.4 M/NHS 0.1 M for 5 min a 100 μM peptide dissolved in HBS-EP running buffer (0.1 M HEPES, 30 mM EDTA, 1.5 M NaCl, 0.5% surfactant P20, pH 7.2) was immobilized with a contact time of 30 sec until a loading level of 18 response units (RU) was obtained. […] The SPR-sensogram data were evaluated with the BiaCore evaluation software. The dissociation constant (KD) was determined by a 1:1 Langmuir model fit of the SPR-sensograms.
as §1, with “SFLAP3” for “peptide”, “to obtain” for “until”, “12” for “18”, “(RU).” for “(RU) was obtained.”, “SPR sensogram” for “SPR-sensogram”, “SPR sensograms.” for “SPR-sensograms.”

tumor-free lymph nodes = assay: Histochemical peptide staining of carcinoma-free lymph nodes; parameters: species or system human
Description: Staining with the biotinylated PEG(12)-SFITGv6 peptide was performed on acetone-fixed cryosections (5 μm) of tumor tissues after blocking of unspecific binding using the Avidin/Biotin Blocking Kit (SP-2001, Vector Laboratories). A stock solution of the lyophilized peptide was prepared by dilution in 5% aqueous DMSO. Slices were incubated overnight at 4° C. with 10^-5 M peptide concentration in antibody diluent (DAKO). Detection of bound peptide was carried out with the Vectastain Elite ABC Kit (PK-6100, Vector Laboratories) according to manufacturer's protocol. Peptide specificity was ensured by a scrambled (GRD) PEG(12)-SFITGv6 derivate, the somatostatin receptor ligand DOTATOC and negative controls (without peptide or primary antibody) Staining results were assessed by bright field microscopy (BX50) with the SC30 camera and the cell Sense software (all Olympus).

HNO399 cells = assay: In vitro binding on HNO399 cells; format: cell-based, human; conditions: Example 2, 10 min to 480 min (FIG. 16)
Description: For the assessment of the peptide binding capacity in vitro, 2.5-4×10^5 cells were seeded into 6-well plates and cultivated for 48 h. ^125I-labeled peptide resuspended in 1 mL serum-free medium was added and incubated for either 10 min or 60 min with or without different concentrations of unlabeled peptide (10^−4-10^−11 M). Afterwards, cell monolayers were washed three times with 1 mL phosphate-buffered saline (pH 7.4) to remove unbound peptide and the cells were harvested with 1.4 mL lysis buffer (0.3 M NaOH). […] For the efflux experiments the cells were incubated with ^177Lu-DOTA-labeled peptides for 60 min. Thereafter, radioactive medium was replaced by non-radioactive medium and cell monolayers were incubated for additional 60, 120, and 240 min and afterwards lysed as described earlier. […] Unspecifically bound peptide was removed from the surface by incubation with 1 M glycine-HCl solution (pH 2.2) for 10 min. The monolayer cell was rinsed with PBS and cells were lysed as described before. Radioactivity was determined in a y-counter and calculated as percentage of the applied dose per 1×10^6 cells. Experiments were performed three times, and three repetitions per independent experiment were acquired.

Capan-2 cells = assay: In vitro binding, internalization and efflux on Capan-2 cells; format: cell-based, human
Description: For in vitro binding Studies, 4*10^5-6*10^5 cells were seeded in 6 well plates and cultivated for 24 to 48 hours. At the start of the experiment the medium was replaced with 1 ml serum free medium with a definite amount of radioactive labeled peptide per well. For normal binding assays the cells were incubated for 60 min at 37° C. and afterwards washed 3 times with PBS (pH 7.4). Cells were lysed with 2 times 0.5 ml of a 0.3 M NaOH +0.2% SDS lysis-buffer. Competition assays were performed with ^125I-labeled and unlabelled (10^−6 to 10^−11M) peptide and incubated at the same time for 60 min.
Cells were incubated for 10 to 240 min with ^177Lu-labelled peptide in internalization assays. After the washing steps, the cells were incubated with 1 ml glycine-HCl (1 M, pH 2.2) buffer for 10 min to remove surface bound peptide. Prior to the lyses the cells were washed again. Values are given as percentage of applied dose per 10^6 cells.
The efflux was tested with ^177Lu-labeled peptides. After 60 min incubation the radioactive medium was removed and 1 ml fresh serum-free medium was added. After additional incubation of 60, 120 or 240 min, cell bound activity was measured.

SMILES | lower affinity for ITGαvβ3 than for ITGαvβ6 (ITGαvβ3; SPR) | Kd (ITGαvβ3; peptide immobilized, integrin as analyte, 1:1 Langmuir fit) | histochemical peptide staining result (tumor-free lymph nodes) | maximum binding capacity of ^177Lu-DOTA-labeled peptide (kinetics) (HNO399 cells) | cell binding of ^177Lu-DOTA-labeled peptide (Capan-2 cells; after 60 min) | internalization rate in comparison of the three peptides (Capan-2 cells; after 4 hours) | efflux (released into the culture medium) (Capan-2 cells; during 4 hours following 60 min exposure)
CSCC[C@@H]1NC(=O)[C@H](CC(C)C)NC(=O)[C@H](CC(=O)O)NC(=O)CNC(=O)[C@H](CCCNC(=N)N)NC(=O)[C@H](Cc2ccccc2)NC(=O)[C@H]([C@@H](C)O)NC(=O)[C@@H](NC(=O)[C@H](CCCNC(=N)N)NC(=O)CN)CSSC[C@@H](C(=O)N[C@@H](Cc2ccc(O)cc2)C(=O)N2CCC[C@H]2C(=O)N[C@@H](CC(=O)O)C(=O)O)NC(=O)[C@H](CC(C)C)NC(=O)[C@H](CCC(N)=O)NC1=O [SFITGv6, NH2-G-R-C1-T-F-R-G-D-L-M-Q-L-C1-Y-P-D-COOH] (H-GRCTFRGDLMQLCYPD-OH; disulfide 3-13) | ten-fold lower affinity | 0.185 ± 0.0008 µM | did not show any SFITGv6-specificy |  |  |  | 
CC(C)C[C@@H]1NC(=O)[C@H](CC(=O)O)NC(=O)CNC(=O)[C@H](CCCNC(=N)N)NC(=O)CNC(=O)[C@H]([C@@H](C)O)NC(=O)[C@@H](NC(=O)[C@H](CCCNC(=N)N)NC(=O)CNC(=O)CN2CCN(CC(=O)O)CCN(CC(=O)O)CCN(CC(=O)O)CC2)CSSC[C@@H](C(=O)N[C@@H](Cc2ccc(O)cc2)C(=O)N2CCC[C@H]2C(=O)N[C@@H](CC(=O)O)C(N)=O)NC(=O)[C@H](CC(C)C)NC(=O)[C@H](CCCNC(=N)N)NC(=O)CNC1=O [^177Lu-DOTA-SFLAP3, metal not drawn] ({DOTA}-GRCTGRGDLGRLCYPD-NH2; disulfide 3-13; N-terminus and C-terminus assumed) |  |  |  | 4.31% | 9.5% | highest internalization rate | 50%
